Assay: Inhibition of Influenza A/California/04/09 H1N1 PA endonuclease (1 to 204 residues) expressed in Escherichia coli BL21 (RIL) cells using (6-FAM)TGGCAATATCAGCTCCACA(MGBNFQ) DNA probe as substrate measured after 5 to 90 mins by fluorescence assay
Parameters: species or system Influenza A virus (A/California/04/2009(H1N1))

Structure (SMILES) | IC50
O=c1[nH]cc(Br)cc1O | 16 µM
O=C(O)c1ccc(-c2cc(O)c(=O)[nH]c2-c2ccc(F)cc2)cc1 | 0.011 µM
